Experimental data reported in patent US9566312B2, “Cyclic peptides and use as medicines” (priority 2012, dated 2017).
Like-named read-outs stand apart in the source and are kept apart here. Starred links: 1 amine or outer side, 2 acyl side, 3 side chain; linkers in the order of their positions; H or OH if unused. Non-standard residues stand in square brackets, D forms with d. Residues, ends and D or L forms follow the SMILES beside them. X56 = CCN1CCN(C(=O)OC[C@@H](C)[C@@H](C(=O)[*:2])N(C)[*:1])CC1; X70 = C[C@H](CCCOC(=O)N1CCN(C)CC1)[C@@H](C(=O)[*:2])N(C)[*:1]; X78 = CC(C)N1CCN(CCOC[C@@H](C)[C@@H](C(=O)[*:2])N(C)[*:1])CC1; X28 = CCN1CCN(C(=O)OC[C@H](C)[C@@H](C(=O)[*:2])N(C)[*:1])CC1; X72 = C[C@H](CCN1CCN(C2CCC2)CC1)[C@@H](C(=O)[*:2])N(C)[*:1]; X35 = C[C@H](CN1CCC2(CC1)OCCO2)[C@@H](C(=O)[*:2])N(C)[*:1]; X34 = C[C@H](COC(=O)N1CCOCC1)[C@@H](C(=O)[*:2])N(C)[*:1]; X65 = C[C@H](CCN1CCCCC1)[C@@H](C(=O)[*:2])N(C)[*:1]; X76 = CO[C@H](CN1CCOCC1)[C@@H](C(=O)[*:2])N(C)[*:1]; MeBmt = C/C=C/C[C@@H](C)[C@@H](O)[C@H](NC)C(=O)O; NMeL = CN[C@@H](CC(C)C)C(=O)O; NMeV = CN[C@H](C(=O)O)C(C)C; dNMeA = CN[C@H](C)C(=O)O; Abu = CC[C@H](N)C(=O)O

Experiments:
[1] = target: cyclophilin A (CypA) (Homo sapiens (Human), UniProt P62937); test: Inhibitor binding to cyclophilin proteins by SPR, CypA; set-up: unit not given here; conditions: 1:1 binding model;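 also: Single-cycle kinetics on a Biacore T200, compound injected at several concentrations for 1 min each at 50 µL/min, then 10 min dissociation, in HEPES pH 7.4 buffer with 3% DMSO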
cyclophilin A (CypA), sequence (P62937 whole entry): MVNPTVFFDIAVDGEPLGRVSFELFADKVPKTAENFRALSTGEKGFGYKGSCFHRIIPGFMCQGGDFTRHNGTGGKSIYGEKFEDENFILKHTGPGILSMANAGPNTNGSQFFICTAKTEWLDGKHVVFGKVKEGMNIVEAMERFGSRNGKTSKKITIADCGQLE

[2] = target: cyclophilin B (CypB) (Homo sapiens (Human), UniProt P23284); test: Inhibitor binding to cyclophilin proteins by SPR, CypB; set-up: unit not given here; conditions: 1:1 binding model
cyclophilin B (CypB), sequence (P23284 34-216): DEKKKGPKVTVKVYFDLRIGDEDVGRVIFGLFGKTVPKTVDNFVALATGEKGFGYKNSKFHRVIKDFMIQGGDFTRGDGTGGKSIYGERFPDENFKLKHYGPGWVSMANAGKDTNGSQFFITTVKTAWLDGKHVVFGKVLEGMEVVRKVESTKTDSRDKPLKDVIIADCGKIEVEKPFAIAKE
Method in brief: (§1)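 A 1:1 model fitted to single-cycle kinetic SPR data gave association and dissociation rates and KD. Compound series injected for 1 min each at 50 μL/min, then 10 min dissociation. Running buffer HEPES pH 7.4 with NaCl, P20 and 3% DMSO; target protein was biotinylated avi-tagged cyclophilin on a CAPture surface.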

[3] = target: CypF (Homo sapiens (Human), UniProt P30405); test: Inhibitor binding to cyclophilin proteins by SPR, CypF; conditions: 1:1 binding model
CypF, sequence (P30405 30-207): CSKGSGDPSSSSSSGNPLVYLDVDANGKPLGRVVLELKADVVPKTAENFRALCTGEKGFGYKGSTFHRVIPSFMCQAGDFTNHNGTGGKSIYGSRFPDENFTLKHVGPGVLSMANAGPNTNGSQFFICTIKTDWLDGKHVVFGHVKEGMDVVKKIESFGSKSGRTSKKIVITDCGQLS
Method in brief: as §1

[4] = test system: genotype 1b subgenomic HCV replicon in Huh7.5 cells; type: cell-based, hepatitis C virus; conditions: read-out: RPLN-1b IC50
Method in brief: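 Replicon inhibition read as renilla luciferase signal versus DMSO controls after 72 h incubation, in Huh7.5 cells harbouring a genotype 1b subgenomic replicon; medium phenol red-free DMEM lacking G418. CC50 determined in parallel via Cell Titer-Glo.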

[5] = test system: peripheral blood mononuclear cells (PBMC); test: Anti-proliferative or immunosuppressive activity, BrdU incorporation in PHA-stimulated PBMC; type: cell-based; conditions: PHA 3 μg/ml, 60 hour compound treatment; read-out: EMV PBMC IC50
Method in brief: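 BrdU ELISA read-out of DNA synthesis in freshly isolated PBMCs (two donors, 30,000 cells/well, X-VIVO 15). T-cell proliferation triggered with phytohemagglutinin at 3 μg/ml.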

[6] = target: organic anion transporting polypeptide 1B1 (OATP1B1) (Homo sapiens (Human), UniProt Q9Y6L6); test: OATP assay in CHO-OATP1B1 cells;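 also: inhibition of probe substrate uptake into the cells, ten minutes exposure, accumulated substrate read by fluorescence once cells were lysed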
organic anion transporting polypeptide 1B1 (OATP1B1), sequence (Q9Y6L6 whole entry): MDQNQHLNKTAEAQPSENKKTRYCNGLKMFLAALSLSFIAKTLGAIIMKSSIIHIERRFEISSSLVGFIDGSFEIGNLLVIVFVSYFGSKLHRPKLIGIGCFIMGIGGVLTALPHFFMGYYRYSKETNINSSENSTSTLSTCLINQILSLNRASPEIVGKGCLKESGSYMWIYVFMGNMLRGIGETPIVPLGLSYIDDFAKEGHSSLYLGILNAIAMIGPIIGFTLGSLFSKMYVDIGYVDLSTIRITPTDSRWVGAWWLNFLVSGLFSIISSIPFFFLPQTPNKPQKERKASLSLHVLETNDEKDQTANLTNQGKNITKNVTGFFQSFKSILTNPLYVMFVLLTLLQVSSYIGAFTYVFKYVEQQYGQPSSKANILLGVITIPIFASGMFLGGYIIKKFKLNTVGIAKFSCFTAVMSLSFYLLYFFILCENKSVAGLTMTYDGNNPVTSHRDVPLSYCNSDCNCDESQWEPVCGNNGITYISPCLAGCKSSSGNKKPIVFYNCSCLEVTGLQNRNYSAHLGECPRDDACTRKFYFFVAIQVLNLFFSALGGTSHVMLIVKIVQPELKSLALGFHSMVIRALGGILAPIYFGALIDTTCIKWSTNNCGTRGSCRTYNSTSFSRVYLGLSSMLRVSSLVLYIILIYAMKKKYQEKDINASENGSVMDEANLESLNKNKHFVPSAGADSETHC
Method: In order to determine whether the compounds of the present invention interact with hepatic transporters, experiments were carried out that compared the concentration-dependent inhibition toward the organic anion transporting polypeptide 1B1 (OATP1B1) and the multidrug resistance associated protein 2 (MRP2).
The cells were cultured in DMEM/F12 +10% FBS+2 mM Ala-Gln+1% Pen-Strep for a period of two days, and the media was changed one day post-seeding. Prior to the assay, media was aspirated and were washed −3× with HBSS+10 mM HEPES and the solution was equilibrated for 15 min in HBSS+10 mM HEPES. Solutions containing the inhibitor were prepared in HBSS+10 mM HEPES (up to 1% DMSO). […] After 10 min, the substrate or substrate/inhibitor solution was aspirated and the cells were washed 3× with HBSS+10 mM HEPES. The amount of the transported probe substrate was determined by fluorescent photometry after cell lysis, and the IC50 was derived from the concentration-response curve.

[7] = genotype 1b replicon, 72 h incubation

## C/C=C/C[C@@H](C)[C@@H](O)[C@H]1C(=O)N[C@@H](CC)C(=O)N(C)[C@H](C)C(=O)N(C)[C@@H]([C@@H](CN2CCOCC2)OC)C(=O)N[C@@H](C(C)C)C(=O)N(C)[C@@H](CC(C)C)C(=O)N[C@@H](C)C(=O)N[C@H](C)C(=O)N(C)[C@@H](CC(C)C)C(=O)N(C)[C@@H](CC(C)C)C(=O)N(C)[C@@H](C(C)C)C(=O)N1C [Compound 2.21.1, 3-[D-Ala]-4-[(2S,3R)-3-methoxy-2-(methylamino)-4-morpholinobutanoyl]-cyclosporin] (cyclo(A[dA][NMeL][NMeL][NMeV][MeBmt][Abu][dNMeA][X76]V[NMeL]))
[1]
  CypA Kd: 2.8
[2]
  CypB Kd: 1.2
[3]
  CypF Kd: 1.2 nM
[4]
  IC50: 23 nM
[5]
  IC50: 15700 nM
[6]
  IC50: 900 nM

## C/C=C/C[C@@H](C)[C@@H](O)[C@H]1C(=O)N[C@@H](CC)C(=O)N(C)[C@H](C)C(=O)N(C)[C@@H]([C@H](C)CCN2CCCCC2)C(=O)N[C@@H](C(C)C)C(=O)N(C)[C@@H](CC(C)C)C(=O)N[C@@H](C)C(=O)N[C@H](C)C(=O)N(C)[C@@H](CC(C)C)C(=O)N(C)[C@@H](CC(C)C)C(=O)N(C)[C@@H](C(C)C)C(=O)N1C [Compound 2.18.8, 3-[D-Ala]-4-[(2S,3R)-3-methyl-2-(methylamino)-5-(piperidin-1-yl)pentanoyl]-cyclosporin] (cyclo(A[dA][NMeL][NMeL][NMeV][MeBmt][Abu][dNMeA][X65]V[NMeL]))
[1]
  CypA Kd: 0.9
[2]
  CypB Kd: 0.7
[3]
  CypF Kd: 0.5 nM
[4]; [7]
  IC50: 45 nM
[5]
  IC50: 1000 nM
[6]
  IC50: 2300 nM

## C/C=C/C[C@@H](C)[C@@H](O)[C@H]1C(=O)N[C@@H](CC)C(=O)N(C)[C@H](C)C(=O)N(C)[C@@H]([C@H](C)COC(=O)N2CCOCC2)C(=O)N[C@@H](C(C)C)C(=O)N(C)[C@@H](CC(C)C)C(=O)N[C@@H](C)C(=O)N[C@H](C)C(=O)N(C)[C@@H](CC(C)C)C(=O)N(C)[C@@H](CC(C)C)C(=O)N(C)[C@@H](C(C)C)C(=O)N1C [Compound 2.5.7, 3-[D-Ala]-4-[(2S,3S)-3-methyl-2-(methylamino)-4-((morpholine-4-carbonyl)oxy)butanoyl]-cyclosporin] (cyclo([MeBmt][Abu][dNMeA][X34]V[NMeL]A[dA][NMeL][NMeL][NMeV]))
[1]
  CypA Kd: 2.1
[2]
  CypB Kd: 1.3
[3]
  CypF Kd: 1.5 nM
[4]
  IC50: 48 nM
[5]
  IC50: 19300 nM
[6]
  IC50: 2300 nM

## C/C=C/C[C@@H](C)[C@@H](O)[C@H]1C(=O)N[C@@H](CC)C(=O)N(C)[C@H](C)C(=O)N(C)[C@@H]([C@H](C)CCCN2CCN(CC)CC2)C(=O)N[C@@H](C(C)C)C(=O)N(C)[C@@H](CC(C)C)C(=O)N[C@@H](C)C(=O)N[C@H](C)C(=O)N(C)[C@@H](CC(C)C)C(=O)N(C)[C@@H](CC(C)C)C(=O)N(C)[C@@H](C(C)C)C(=O)N1C (stereo in doubt) [Compound 2.19.4, 3-[D-Ala]-4-[(2S,3R)-6-(4-ethylpiperazin-1-yl)-3-methyl-2-(methylamino)hexanoyl]-cyclosporin]
[1]
  CypA Kd: 0.6
[2]
  CypB Kd: 0.4
[3]
  CypF Kd: 0.4 nM
[4]; [7]
  IC50: 60 nM
[5]
  IC50: 8800 nM
[6]
  IC50: 2600 nM

## C/C=C/C[C@@H](C)[C@@H](O)[C@H]1C(=O)N[C@@H](CC)C(=O)N(C)[C@H](C)C(=O)N(C)[C@@H]([C@H](C)COCCN2CCN(C(C)C)CC2)C(=O)N[C@@H](C(C)C)C(=O)N(C)[C@@H](CC(C)C)C(=O)N[C@@H](C)C(=O)N[C@H](C)C(=O)N(C)[C@@H](CC(C)C)C(=O)N(C)[C@@H](CC(C)C)C(=O)N(C)[C@@H](C(C)C)C(=O)N1C [Compound 2.8.5, 3-[D-Ala]-4-[(2S,3S)-4-(2-(4-isopropylpiperazin-1-yl)ethoxy)-3-methyl-2-(methylamino)butanoyl]-cyclosporin] (cyclo(A[dA][NMeL][NMeL][NMeV][MeBmt][Abu][dNMeA][X78]V[NMeL]))
[1]
  CypA Kd: 0.6
[2]
  CypB Kd: 0.5
[3]
  CypF Kd: 0.4 nM
[4]; [7]
  IC50: 98.9 nM
[5]
  IC50: 8100 nM
[6]
  IC50: 4400 nM

## C/C=C/C[C@@H](C)[C@@H](O)[C@H]1C(=O)N[C@@H](CC)C(=O)N(C)[C@H](C)C(=O)N(C)[C@@H]([C@H](C)CCN2CCN(C3CCC3)CC2)C(=O)N[C@@H](C(C)C)C(=O)N(C)[C@@H](CC(C)C)C(=O)N[C@@H](C)C(=O)N[C@H](C)C(=O)N(C)[C@@H](CC(C)C)C(=O)N(C)[C@@H](CC(C)C)C(=O)N(C)[C@@H](C(C)C)C(=O)N1C [Compound 2.18.10, 3-[D-Ala]-4-[(2S,3R)-5-(4-cyclobutylpiperazin-1-yl)-3-methyl-2-(methylamino)pentanoyl]-cyclosporin] (cyclo(A[dA][NMeL][NMeL][NMeV][MeBmt][Abu][dNMeA][X72]V[NMeL]))
[1]
  CypA Kd: 1.5
[2]
  CypB Kd: 1.1
[3]
  CypF Kd: 0.7 nM
[4]; [7]
  IC50: 96 nM
[5]
  IC50: 1600 nM
[6]
  IC50: 2100 nM

## C/C=C/C[C@@H](C)[C@@H](O)[C@H]1C(=O)N[C@@H](CC)C(=O)N(C)[C@H](C)C(=O)N(C)[C@@H]([C@H](C)CN2CCC3(CC2)OCCO3)C(=O)N[C@@H](C(C)C)C(=O)N(C)[C@@H](CC(C)C)C(=O)N[C@@H](C)C(=O)N[C@H](C)C(=O)N(C)[C@@H](CC(C)C)C(=O)N(C)[C@@H](CC(C)C)C(=O)N(C)[C@@H](C(C)C)C(=O)N1C [Compound 2.5.28, 3-[D-Ala]-4-[(2S,3R)-3-methyl-2-(methylamino)-4-(1,4-dioxa-8-azaspiro[4.5]decan-8-yl)butanoyl]-cyclosporin] (cyclo(A[dA][NMeL][NMeL][NMeV][MeBmt][Abu][dNMeA][X35]V[NMeL]))
[1]
  CypA Kd: 1.4
[2]
  CypB Kd: 0.8
[3]
  CypF Kd: 0.8 nM
[4]; [7]
  IC50: 17 nM
[5]
  IC50: 6100 nM
[6]
  IC50: 2100 nM

## C/C=C/C[C@@H](C)[C@@H](O)[C@H]1C(=O)N[C@@H](CC)C(=O)N(C)[C@H](C)C(=O)N(C)[C@@H]([C@H](C)CCCOC(=O)N2CCN(C)CC2)C(=O)N[C@@H](C(C)C)C(=O)N(C)[C@@H](CC(C)C)C(=O)N[C@@H](C)C(=O)N[C@H](C)C(=O)N(C)[C@@H](CC(C)C)C(=O)N(C)[C@@H](CC(C)C)C(=O)N(C)[C@@H](C(C)C)C(=O)N1C [Compound 2.19.7, 3-[D-Ala]-4-[(2S,3R)-3-methyl-2-(methylamino)-6-((4-methylpiperazine-1-carbonyl)oxy)hexanoyl]-cyclosporin] (cyclo(A[dA][NMeL][NMeL][NMeV][MeBmt][Abu][dNMeA][X70]V[NMeL]))
[1]
  CypA Kd: 1.1
[2]
  CypB Kd: 0.7
[3]
  CypF Kd: 0.7 nM
[4]; [7]
  IC50: 11 nM
[5]
  IC50: 15900 nM
[6]
  IC50: 2900 nM

## C/C=C/C[C@@H](C)[C@@H](O)[C@H]1C(=O)N[C@@H](CC)C(=O)N(C)[C@H](C)C(=O)N(C)[C@@H]([C@@H](C)COC(=O)N2CCN(CC)CC2)C(=O)N[C@@H](C(C)C)C(=O)N(C)[C@@H](CC(C)C)C(=O)N[C@@H](C)C(=O)N[C@H](C)C(=O)N(C)[C@@H](CC(C)C)C(=O)N(C)[C@@H](CC(C)C)C(=O)N(C)[C@@H](C(C)C)C(=O)N1C [Compound 2.17.14, 3-[D-Ala]-4-[(2S,3R)-4-((4-ethylpiperazine-1-carbonyl)oxy)-3-methyl-2-(methylamino)butanoyl]-cyclosporin] (cyclo(A[dA][NMeL][NMeL][NMeV][MeBmt][Abu][dNMeA][X28]V[NMeL]))
[1]
  CypA Kd: 0.5
[2]
  CypB Kd: 0.4
[3]
  CypF Kd: 0.5 nM
[4]; [7]
  IC50: 57 nM
[5]
  IC50: 8100 nM
[6]
  IC50: 2200 nM

## C/C=C/C[C@@H](C)[C@@H](O)[C@H]1C(=O)N[C@@H](CC)C(=O)N(C)[C@H](C)C(=O)N(C)[C@@H]([C@H](C)COC(=O)N2CCN(CC)CC2)C(=O)N[C@@H](C(C)C)C(=O)N(C)[C@@H](CC(C)C)C(=O)N[C@@H](C)C(=O)N[C@H](C)C(=O)N(C)[C@@H](CC(C)C)C(=O)N(C)[C@@H](CC(C)C)C(=O)N(C)[C@@H](C(C)C)C(=O)N1C [Compound 2.5.24, 3-[D-Ala]-4-[(2S,3S)-4-((4-ethylpiperazine-1-carbonyl)oxy)-3-methyl-2-(methylamino)butanoyl]-cyclosporin] (cyclo(A[dA][NMeL][NMeL][NMeV][MeBmt][Abu][dNMeA][X56]V[NMeL]))
[1]
  CypA Kd: 0.5
[2]
  CypB Kd: 0.3
[3]
  CypF Kd: 0.3 nM
[4]; [7]
  IC50: 23 nM
[5]
  IC50: 3600 nM
[6]
  IC50: 1900 nM
